Data on 18 molecules can be found in patent publication US7541383B2, “Asthma and allergic inflammation modulators” (Amgen Inc., priority 2002, dated 2009).

This test deals with T1, human CRTH2 (Homo sapiens, UniProt Q9Y5Y4).
T1 construct: Full-length human CRTH2 cDNA was generated by polymerase chain reaction (PCR); expressed in transfected cells; host or cells: 293 cells stably transfected with pHLT124 (pCDNA3.1(+)), named 293(124)
T1 sequence (Q9Y5Y4 1-395): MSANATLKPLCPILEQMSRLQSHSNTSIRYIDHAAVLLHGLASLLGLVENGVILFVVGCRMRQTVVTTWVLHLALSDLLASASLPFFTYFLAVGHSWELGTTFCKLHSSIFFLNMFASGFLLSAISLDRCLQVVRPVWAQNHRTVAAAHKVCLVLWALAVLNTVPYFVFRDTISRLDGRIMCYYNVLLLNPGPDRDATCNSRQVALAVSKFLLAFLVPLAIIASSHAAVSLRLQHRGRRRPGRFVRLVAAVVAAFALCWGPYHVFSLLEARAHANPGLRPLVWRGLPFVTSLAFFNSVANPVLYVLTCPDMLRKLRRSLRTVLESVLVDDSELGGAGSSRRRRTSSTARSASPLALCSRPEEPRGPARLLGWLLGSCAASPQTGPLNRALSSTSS
Description: Human CRTH2 binding assay (3H-PGD2 ligand binding, 293(124) cells). The note with it: 3H-PGD2 binding to 293(124) cells stably expressing human CRTH2; room temperature, 2.5 h. As for the experimental part:
Full-length human CRTH2 cDNA was generated by polymerase chain reaction (PCR) using human genomic DNA as template and subsequently cloned into pCDNA3.1(+) (Invitrogen), generating a CRTH2 expression plasmid pHLT124. The plasmid was transfected into 293 cells, […], using LipofectAMINE™ reagents (Gibco/BRL). G418 ([…]) was added to the culture 48 h after transfection and cells were maintained under selection for 3 weeks to ensure that all surviving cells stably expressed CRTH2. These cells are labeled as 293(124) hereafter.
^3H-PGD2 binding assay was performed using 293(124) cells. In brief, cells were washed and suspended in RPMI containing 0.5% BSA and 20 mM HEPES. Each assay contained 25,000 cells, appropriate amount of test compound when necessary and a mixture of 1 nM ^3H-PGD2 (Anmersham Pharmacia Biotech) and 30 nM of unlabeled PGD2 (Cayman Chemicals) in […] final volume. The cell mixture was incubated at room temperature for 2.5 h with shaking and the cells were separated from free ^3H-PGD2 and transferred onto a filter plate using a cell harvester. Radioactivity bound to the cells was measured on a liquid scintillation counter. Nonspecific binding was determined in the presence of […] of unlabeled PGD2.
`Cc1ccc(S(=O)(=O)Nc2cc(C(F)(F)F)ccc2Oc2ccc(CC(=O)O)cc2)cc1` [Example 1, {4-[2-(toluene-4-sulfonylamino)-4-trifluoromethyl-phenoxy]-phenyl}-acetic acid]: the IC50 (usually the concentration needed to halve the response being measured) was in the range of 1000 to 15000 nM.
Next, `O=C(O)Cc1ccc(Oc2ccc(C(F)(F)F)cc2NS(=O)(=O)c2cccc3ccccc23)cc1` [Example 2, {4-[2-(Naphthalene-1-sulfonylamino)-4-trifluoromethyl-phenoxy]-phenyl}-acetic acid]: 1000 to 15000 nM; `O=C(O)Cc1ccc(Oc2ccc(C(F)(F)F)cc2NC(=O)c2ccccc2)cc1` [Example 3, [4-(2-Benzoylamino-4-trifluoromethyl-phenoxy)-phenyl]-acetic acid]: 1000 to 15000 nM.
Molecule `CS(=O)(=O)Nc1cc(C(F)(F)F)ccc1Oc1ccc(CC(=O)O)cc1` [Example 4, [4-(2-Methanesulfonylamino-4-trifluoromethyl-phenoxy)-phenyl]-acetic acid] returned a 50% inhibitory concentration (IC50) greater than 15000 nM.
The result for `O=C(O)Cc1cc(OCc2ccccc2)cc(C(F)(F)F)c1` [Example 5, (3-benzyloxy-5-trifluoromethyl-phenyl)-acetic acid] reads 1000 to 15000 nM; that for `CCNC(=O)c1ccc(Oc2ccc(CCC(=O)O)cc2)c(NS(=O)(=O)c2ccccc2)c1` [Example 10, 3-[4-(2-Benzenesulfonylamino-4-ethylcarbamoyl-phenoxy)-phenyl]-propionic acid], less than 1000 nM.
The result for `CCNC(=O)c1ccc(Oc2ccc(CC(=O)O)cc2OC)c(NS(=O)(=O)c2ccc(Cl)cc2Cl)c1` [Example 12, (4-[2-(2,4-Dichloro-benzenesulfonyl-amino)-4-ethylcarbamoyl-phenoxy]-3-methoxy-phenyl)-acetic acid] reads less than 1000 nM; that for `CCNC(=O)c1ccc(S(=O)(=O)c2ccc(CC(=O)O)cc2)c(NS(=O)(=O)c2ccc(Cl)cc2Cl)c1` [Example 17, {4-[2-(2,4-dichloro-benzenesulfonyl-amino)-4-ethylcarbamoyl-benzenesulfonyl]-phenyl}-acetic acid], 1000 to 15000 nM; that for `CCNC(=O)c1cc(NS(=O)(=O)c2ccc(Cl)cc2Cl)c2oc3c(Cl)cc(CC(=O)O)cc3c2c1` [Example 18, [4-chloro-6-(2,4-dichloro-benzenesulfonyl-amino)-8-ethylcarbamoyl-dibenzofuran-2-yl]-acetic acid], less than 1000 nM.
Next, `CCOC(=O)Cc1cccc(Oc2ccccc2[N+](=O)[O-])c1` [Example 31, Ethyl 3-(2-nitrophenoxy)phenylacetate]: greater than 15000 nM; `O=C(O)Cc1cccc(Oc2ccc(C(=O)c3ccccc3)cc2NS(=O)(=O)c2ccccc2)c1` [Example 33, 3-(4-Benzoyl-2-benzenesulfonylamino-phenoxy)phenylacetic acid]: 1000 to 15000 nM.
Take `O=C(O)Cc1cccc(Oc2ccc(Cl)cc2NS(=O)(=O)c2ccccc2)c1` [Example 35, 3-(4-Chloro-2-benzenesulfonylamino-phenoxy)phenylacetic acid]: the IC50 is less than 1000 nM.
In turn, `COc1ccc(Oc2cccc(CC(=O)O)c2)c(NS(=O)(=O)c2ccccc2)c1` [Example 36, 3-(4-Methoxy-2-benzenesulfonylamino-phenoxy)phenylacetic acid] yielded a half-inhibitory concentration (IC50) of 1000 to 15000 nM.
In turn, `O=C(O)Cc1cn(Cc2ccccc2NCc2ccccc2)c2ccccc12` [Example 63] came in with a half-maximal inhibitory concentration (IC50) of 1000 to 15000 nM.
Next, `Cc1ccc(S(=O)(=O)Nc2ccccc2Cc2ccc(CC(=O)O)cc2)cc1` [Example 64]: less than 1000 nM; `CCNC(=O)c1ccc(C(=O)c2cc(CC(=O)O)ccc2OC)c(NS(=O)(=O)c2ccc(C)cc2)c1` [Example 70]: less than 1000 nM.
Next, `CCNC(=O)c1ccc(Oc2ccc(Cc3nnn[nH]3)cc2OC)c(NS(=O)(=O)c2ccc(Cl)cc2Cl)c1` [Example 75, 3-(2,4-Dichloro-benzenesulfonylamino)-N-ethyl-4-[2-methoxy-4-(1H-tetrazol-5-ylmethyl)-phenoxy]-benzamide]: less than 1000 nM; `CCNC(=O)c1ccc(Oc2cc(CC(=O)O)ccc2OC)c(NC(=O)OC(C)C)c1` [Example 77, [3-(4-Ethylcarbamoyl-2-isopropoxycarbonylamino-phenoxy)-4-methoxy-phenyl]-acetic acid]: 1000 to 15000 nM.
